Here are results for 14 compounds from PubChem BioAssay (NCI).

≈ marks a conversion by molar mass, not a printed value.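 Where inhibition never reached the appropriate level, the endpoint shown equals the highest concentration tested. Otherwise, values were interpolated linearly from a five-concentration, 48-hour dose response in 96-well plates. The concentration for 50% growth inhibition is given as GI50. TGI is the concentration that stops growth completely.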 Calls of active or inactive are those of the source. Rule as the data show it: active = GI50 below about 0.43 µM; inactive = the rest.

Among the test systems are HCT-116 colon; HOP-62 NSCLC; HT29 colon; MCF7 breast; OVCAR-8 ovarian; RXF 393 renal; SK-MEL-5 melanoma; SR leukemia; TK-10 renal; KM20L2 colon.
Holding throughout (experiment): NCI tumour cell line growth inhibition, 48 h

Consider `COc1cc2c(cc1C)NC(=O)/C2=C/c1c(Cl)[nH]c2ccccc12`, for which the TGI amounted to 17 µM in the assay on HCT-116 colon; 14.6 µM with HOP-62 NSCLC; 14.4 µM with HT29 colon; 16.1 µM in the assay with MCF7 breast; 26.4 µM with OVCAR-8 ovarian; 24.7 µM in the assay with RXF 393 renal. Moreover, the TGI with SK-MEL-5 melanoma worked out at 11.4 µM; in the assay on SR leukemia, 23.1 µM; in the assay on TK-10 renal, 22.1 µM.

`CCc1nnc2sc(-c3ccc(-c4ccccc4[N+](=O)[O-])o3)nn12`: the TGI with HCT-116 colon, in the assay with HOP-62 NSCLC, with HT29 colon, with MCF7 breast, with OVCAR-8 ovarian and with RXF 393 renal was > 100 µM each time. Also, the TGI with SK-MEL-5 melanoma was 65.9 µM; with SR leukemia, 72.6 µM; in the assay on TK-10 renal it was > 100 µM.

Regarding `COc1ccc(N2C(=O)[C@@H]3[C@@H]4CC(C)CC[C@@H]4c4c([nH]c5ccccc45)[C@@H]3C2=O)cc1` (some centres undefined), the TGI in the assay with HCT-116 colon is 20 µM; in the assay on HOP-62 NSCLC it was 32.8 µM; with HT29 colon, > 100 µM; with KM20L2 colon it was > 100 µM; in the assay with OVCAR-8 ovarian, 40.1 µM; in the assay with SK-MEL-5 melanoma, > 100 µM. For the same compound, the results for the TGI in the assay with SR leukemia and in the assay with TK-10 renal were > 25.9 µM and 45.6 µM, respectively.

For `CCOC(=O)CN(CC)C(=O)NC12CC3CC(CC(C3)C1)C2`, the TGI in the assay on HCT-116 colon was 522 µM; in the assay on HOP-62 NSCLC, 602 µM; in the assay with HT29 colon it was 425 µM; in the assay on KM20L2 colon, 471 µM; in the assay with MCF7 breast it was 461 µM; in the assay with OVCAR-8 ovarian it was > 750 µM. For the same compound, the TGI in the assay on RXF 393 renal was 509 µM; in the assay with SK-MEL-5 melanoma, 211 µM.

As to `CCOc1c2c(cc3c1C(=O)c1c(OC)cccc1C3=O)C=C(OC)CC2`, the TGI in the assay on HCT-116 colon, with HOP-62 NSCLC, with HT29 colon, in the assay on MCF7 breast, in the assay with OVCAR-8 ovarian and in the assay on RXF 393 renal was > 25 µM in each case. Besides, the figures for the TGI in the assay with SK-MEL-5 melanoma, with SR leukemia and in the assay on TK-10 renal were > 25 µM, 22.9 µM and > 25 µM, respectively.

Regarding `COC(=O)CC(=O)OC1C[C@@H]2CCC3C(C)(C)CCC[C@]3(C)C23CC[C@@]1(C)C3` (some centres undefined), the TGI with HCT-116 colon amounted to 31.4 µM; in the assay on HOP-62 NSCLC, 34.1 µM; in the assay on HT29 colon, 35.1 µM; in the assay on KM20L2 colon, 37.6 µM; with OVCAR-8 ovarian, 36.8 µM; in the assay with RXF 393 renal it was 37.2 µM. In addition, the TGI in the assay with SK-MEL-5 melanoma is 31.7 µM; in the assay on SR leukemia, > 100 µM; in the assay with TK-10 renal, 34.3 µM.

Take `Cc1c2ccncc2c(C)c2c1[nH]c1ccc(O)cc12`: the GI50 in the assay with HOP-62 NSCLC is 0.0255 µg/mL (≈ 0.0972 µM); with HT29 colon, 0.185 µg/mL (≈ 0.704 µM); in the assay with MCF7 breast, 0.0319 µg/mL (≈ 0.122 µM); in the assay on RXF 393 renal, 0.102 µg/mL (≈ 0.387 µM). Moreover, the TGI with HOP-62 NSCLC was 0.206 µg/mL; with HT29 colon, 1.23 µg/mL; in the assay on MCF7 breast, 0.338 µg/mL. The result in the assay with KM20L2 colon was inactive.

For the compound `CCOC(=O)c1c(N2CCN(C)CC2)[nH]c(=O)c(C(c2c(Cl)cccc2Cl)c2c(O)c(C(=O)OCC)c(N3CCN(C)CC3)[nH]c2=O)c1O`, the TGI is > 100 µM in the assay with HCT-116 colon; > 100 µM in the assay with HOP-62 NSCLC; 39.1 µM in the assay on HT29 colon; > 100 µM with MCF7 breast; 45 µM in the assay with OVCAR-8 ovarian; 38.8 µM in the assay on RXF 393 renal. In addition, the TGI was determined as 40.1 µM in the assay on SK-MEL-5 melanoma, 67.6 µM with SR leukemia and 55.4 µM in the assay with TK-10 renal.

In the case of `CCCCCCNC(=O)CCN(C(=O)O)S(=O)(=O)c1ccc(NC(=O)c2ccccc2)cc1`, the TGI in the assay on HCT-116 colon is > 59.5 µM; in the assay on HOP-62 NSCLC it was > 100 µM; with HT29 colon, > 100 µM; with KM20L2 colon it was > 100 µM; in the assay on OVCAR-8 ovarian, > 100 µM; in the assay with RXF 393 renal, > 100 µM. Moreover, the TGI in the assay with SK-MEL-5 melanoma was > 100 µM; in the assay on SR leukemia it was 53.8 µM; in the assay on TK-10 renal, > 100 µM.

For `COC1=CC(=O)C2(C=C1OC)OC[C@H]1Oc3c(ccc4c3C=CC(C)(C)O4)C(=O)[C@H]12` (some centres undefined), the TGI in the assay with HCT-116 colon, in the assay with HOP-62 NSCLC, with HT29 colon, with KM20L2 colon, in the assay on OVCAR-8 ovarian and in the assay with RXF 393 renal was > 100 µM in each case. Moreover, the TGI in the assay on TK-10 renal was > 100 µM.

Consider `CN1C/C(=C\c2ccccc2)C2=NN(C(N)=S)[C@H](c3ccccc3)[C@@H]2C1`, for which the TGI in the assay on HCT-116 colon, with HOP-62 NSCLC, in the assay with HT29 colon, in the assay with KM20L2 colon, with RXF 393 renal and in the assay on SR leukemia was > 100 µM throughout. The TGI with TK-10 renal was > 100 µM.

`C[N+]1(CC[N+]2(C)CCCC2c2cccnc2)CCCC1c1cccnc1` (centres undefined): the TGI with HCT-116 colon, in the assay with HOP-62 NSCLC, in the assay with HT29 colon, in the assay with MCF7 breast, in the assay on OVCAR-8 ovarian and in the assay on RXF 393 renal was > 100 µM each time. In addition, the TGI with SK-MEL-5 melanoma, in the assay on SR leukemia and in the assay with TK-10 renal was > 100 µM each time.

Consider `COc1ccc(/C=C(\C#N)c2ccccn2)cc1OC`, for which the TGI in the assay with HCT-116 colon is > 100 µM; in the assay with HOP-62 NSCLC, > 100 µM; with HT29 colon it was > 100 µM; with MCF7 breast, 72.6 µM; with OVCAR-8 ovarian, > 100 µM; with RXF 393 renal it was > 100 µM. Further, the TGI in the assay with SK-MEL-5 melanoma, with SR leukemia and with TK-10 renal was > 100 µM in each case.

For the compound `COc1ccc(/C=N/n2c(-c3ccccc3)n[nH]c2=O)c(OC)c1`, the TGI is > 100 µM with HCT-116 colon; > 68.3 µM with HOP-62 NSCLC; 76.3 µM in the assay with HT29 colon; > 100 µM in the assay on MCF7 breast; > 87.6 µM with OVCAR-8 ovarian; > 93.4 µM in the assay on RXF 393 renal. Also, the TGI with SK-MEL-5 melanoma was > 100 µM; in the assay with SR leukemia, > 100 µM; in the assay with TK-10 renal, > 71.5 µM.
